From US20230355599A1, “BIOMARKERS FOR CBL, AND COMPOSITIONS AND METHODS FOR THEIR USE” (NURIX THERAPEUTICS, INC., priority 2022, published 2023)

What was measured:
phosphorylated HS1 = assay: Phosphorylated HS1 in circulating CD8+ T cells after oral dosing of cynomolgus monkeys (flow cytometry, ex vivo anti-CD3/CD28 stimulation)
Procedure: (§1) To assess these proximal biomarkers of Cbl-b inhibition on CD8^+ T cells, pharmacodynamic analysis was performed in conjunction with a pharmacokinetic study conducted at Charles River Laboratories. Circulating blood was obtained from cynomolgus monkeys treated with 0.3, 1, 3 or 10 mg/kg of Compound 23 after a single dose and after 3 doses. The response to Cbl-b inhibition on proximal biomarkers (pHS1, pPLCγ2, and pZAP70) was measured in CD8^+ T cells using flow cytometry. This technique is highly quantitative and can measure multiple phosphorylation markers in different cell populations within the same sample.
(§2) Compound 23 was formulated in vehicle (0.2% Tween 80 in DI water+1 eq HCL) and aliquoted into individual (not serially diluted) dosing solutions of 0.3, 1, 3 and 10 mg/mL by stirring for 5-10 min, vortexing, and sonicating again as necessary to produce an even suspension that was stirred constantly at 4° C. to achieve and maintain a homogenous suspension. To prepare vehicle, 0.2% Tween 80 in deionized (DI) water, water was measured into a beaker with continuous stirring. Tween 80 was added sequentially, and stirring continued until the solution dissolved; the solution was stored at 2-8° C.
(§3) For pharmacodynamic analysis, whole blood was obtained from cynomolgus monkeys and used for flow cytometry assays to evaluate phosphorylated biomarkers, pHS1, pPLCγ2, and pZAP70, in circulating CD8^+ T cells.
(§4) On the day of dosing, blood samples were collected via femoral venipuncture in accordance with test facility standard operating procedures. 1 mL/tube of whole blood was collected pre-dose (time 0) and at 0.5, 1, 2, 4, 6, and 24 hours post-dose and added into 2 types of TruCulture tubes (Myriad) for pharmacodynamic analysis. One tube contained media alone and is denoted as “Null”, and the second tube contained 2 μg/mL anti-CD3 and anti-CD28, which were prepared at Nurix prior to the study using cynomolgus specific anti-CD3 (BD Biosciences; SP34-2) and anti-CD28 (Bio X cell; CD28.2) and denoted as “CD3/CD28”. Tubes were shipped by overnight courier on cold pack the day of collection and analyzed for phosphorylated biomarkers of Cbl-b inhibition by flow cytometry.
(§5) Following PD collection, upon receipt of TruCulture tubes, each tube was inverted 5-6 times to ensure a mixed suspension of blood. 30 μg of goat anti-mouse IgG (H+L) antibody (Invitrogen) was added to cross-link the stimulation antibodies and induce synchronized cellular stimulation. Cells were stimulated for 60 minutes alongside non-stimulated controls for each time point.
All buffers (Phosflow Lyse/Fix Buffer 5×, Phosflow Perm Buffer I; BD Biosciences) were prepared according to the manufacturer's instructions. After 60 minutes of goat anti-mouse IgG (H+L) antibody stimulation, one volume of blood was mixed with 20 volumes of pre-warmed BD Phosflow Lyse/Fix Buffer (1×) by repeated pipetting (8-10 times), then incubated in a 37° C. water bath for 10 min. Cells were washed and centrifuged at 500×g for 5 min (2×) with PBS. Following centrifugation, cell pellets were resuspended in cold BD Phosflow Perm Buffer I (BD) and incubated at 4° C. for 20 min. […]

phosphorylated PLCγ2 = assay: Phosphorylated PLCγ2 in circulating CD8+ T cells after oral dosing of cynomolgus monkeys (flow cytometry, ex vivo anti-CD3/CD28 stimulation)
Procedure: as §1, §2, §3, §4, §5
All buffers (Phosflow Lyse/Fix Buffer 5×, Phosflow Perm Buffer I; BD Biosciences) were prepared according to the manufacturer's instructions. […]

[1] = multiple doses of 10 mg/kg, 3 days of daily oral dosing
[2] = multiple doses of 10 mg/kg, 4 hours post dose
[3] = single dose oral 10 mg/kg, circulating CD8+ T cells, anti-CD3/CD28 stimulated

Compound: C[C@H]1CCCN(Cc2cc3c(c(C(F)(F)F)c2)CN(c2cccc([C@]4(c5nncn5C)C[C@@H](C)C4)c2)C3=O)C1 [Compound 23]
- phosphorylated HS1 in comparison to baseline (phosphorylated HS1; [1]): significant increases
- time of peak increase of phosphorylated HS1 (phosphorylated HS1; [2]): 76 h
- time of maximal signal, phosphorylated HS1 (phosphorylated HS1; single dose oral 10 mg/kg): 2 hours post dose
- phosphorylated HS1 sustained after 24 hours (phosphorylated HS1; single dose oral 10 mg/kg, after 24 hours): significant increase
- phosphorylated HS1 in comparison to baseline (phosphorylated HS1; [3]): significant increases
- phosphorylated PLCγ2 in comparison to baseline (phosphorylated PLCγ2; [1]): significant increases
- time of peak increase of phosphorylated PLCγ2 (phosphorylated PLCγ2; [2]): 76 h
- time of maximal signal, phosphorylated PLCγ2 (phosphorylated PLCγ2; single dose oral 10 mg/kg): 2 hours post dose
- phosphorylated PLCγ2 in comparison to baseline (phosphorylated PLCγ2; [3]): significant increases
